Consider two compounds from BindingDB's records for doi:10.1021/bi060184f (Abbott Laboratories, 2006).

One assay deals with Dipeptidyl peptidase 8 (Homo sapiens, UniProt Q6V1X1). The assay is described as follows: DPP Inhibition Assay. The following applies: pH 7.5; 22 °C.
In another assay the target is Dipeptidyl peptidase 4 (Homo sapiens, UniProt P27487). The assay is described as follows: DPP Inhibition Assay. The following applies: pH 7.5; 22 °C.

pKi: −log10 of the molar value.

Dipeptidyl peptidase 8, sequence (Q6V1X1 whole entry): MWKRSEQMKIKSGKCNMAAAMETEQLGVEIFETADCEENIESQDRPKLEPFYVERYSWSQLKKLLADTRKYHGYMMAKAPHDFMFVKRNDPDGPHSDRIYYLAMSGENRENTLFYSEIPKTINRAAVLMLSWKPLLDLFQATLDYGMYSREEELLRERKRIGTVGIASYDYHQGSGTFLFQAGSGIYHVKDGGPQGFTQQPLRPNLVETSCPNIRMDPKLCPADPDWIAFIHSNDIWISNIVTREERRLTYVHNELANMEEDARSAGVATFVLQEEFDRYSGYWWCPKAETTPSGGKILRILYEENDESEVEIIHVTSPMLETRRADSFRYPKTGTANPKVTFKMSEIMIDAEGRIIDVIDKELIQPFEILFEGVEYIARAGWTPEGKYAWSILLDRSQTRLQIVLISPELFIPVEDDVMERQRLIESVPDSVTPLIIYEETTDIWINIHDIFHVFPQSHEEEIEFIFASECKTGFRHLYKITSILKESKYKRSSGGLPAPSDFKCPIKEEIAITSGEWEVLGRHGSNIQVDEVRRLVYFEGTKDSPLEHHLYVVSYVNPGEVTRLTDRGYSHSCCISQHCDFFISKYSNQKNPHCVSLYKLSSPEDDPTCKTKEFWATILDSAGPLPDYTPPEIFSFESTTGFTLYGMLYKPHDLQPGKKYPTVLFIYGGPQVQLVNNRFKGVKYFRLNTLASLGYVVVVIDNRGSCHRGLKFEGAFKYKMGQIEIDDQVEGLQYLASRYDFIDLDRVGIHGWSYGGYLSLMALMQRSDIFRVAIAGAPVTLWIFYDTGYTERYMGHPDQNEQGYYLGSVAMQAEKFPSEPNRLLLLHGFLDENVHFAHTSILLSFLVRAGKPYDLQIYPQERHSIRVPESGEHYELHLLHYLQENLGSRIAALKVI
Dipeptidyl peptidase 4, sequence (P27487 whole entry): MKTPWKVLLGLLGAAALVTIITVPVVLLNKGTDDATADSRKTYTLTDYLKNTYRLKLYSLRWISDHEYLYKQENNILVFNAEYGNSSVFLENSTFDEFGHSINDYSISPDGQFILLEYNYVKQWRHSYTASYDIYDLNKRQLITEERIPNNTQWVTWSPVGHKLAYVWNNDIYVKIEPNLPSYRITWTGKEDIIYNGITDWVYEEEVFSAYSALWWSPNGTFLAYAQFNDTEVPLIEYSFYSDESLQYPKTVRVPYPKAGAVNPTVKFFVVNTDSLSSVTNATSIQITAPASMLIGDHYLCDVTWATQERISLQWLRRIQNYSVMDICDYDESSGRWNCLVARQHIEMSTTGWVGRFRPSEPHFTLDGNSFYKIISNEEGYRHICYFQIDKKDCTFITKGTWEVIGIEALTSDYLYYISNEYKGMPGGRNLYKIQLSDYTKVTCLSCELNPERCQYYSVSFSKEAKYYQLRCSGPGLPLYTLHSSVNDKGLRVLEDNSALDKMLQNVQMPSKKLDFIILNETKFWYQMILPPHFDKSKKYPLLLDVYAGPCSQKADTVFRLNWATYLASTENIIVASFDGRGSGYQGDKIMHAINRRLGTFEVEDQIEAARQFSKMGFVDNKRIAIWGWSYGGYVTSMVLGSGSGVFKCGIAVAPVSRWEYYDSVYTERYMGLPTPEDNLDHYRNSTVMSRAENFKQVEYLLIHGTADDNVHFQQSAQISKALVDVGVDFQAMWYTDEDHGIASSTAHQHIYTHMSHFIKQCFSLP

In general, pKi refers to the negative decadic logarithm of the Ki, by convention in mol/L. Low values mean a high Ki, high ones a low Ki. At Dipeptidyl peptidase 8, `CC#C[C@H]1CC[C@@H](C#N)N1C(=O)[C@@H](N)C1CCCC1` [(2S,5R)-1-((2S)-2-amino-2-cyclopentylethanoyl)-5-prop-1-ynylpyrrolidine-2-carbonitrile] showed a pKi below 4.52. With `Cn1c(=O)c2c(nc(N3CCC[C@@H](N)C3)n2Cc2ccccc2C#N)n(C)c1=O` [Xanthine mimetic compound 6], the pKi on Dipeptidyl peptidase 4 was 8.70; on Dipeptidyl peptidase 8 it was below 4.52.
